Measurements taken from PubChem BioAssay (NCI).
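Five concentrations, 48 hours, 96-well plates. GI50 is the concentration that inhibits growth by half. TGI is the concentration that stops growth completely.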

How the values were obtained:
Assay in all cases: inhibition of tumour cell growth, NCI panel, 48 h
[1] = test system: 786-0 renal
[2] = test system: A498 renal
[3] = test system: A549 NSCLC
[4] = test system: ACHN renal
[5] = test system: BT-549 breast
[6] = test system: CAKI-1 renal
[7] = test system: CCRF-CEM leukemia
[8] = test system: COLO 205 colon
[9] = test system: DU-145 prostate
[10] = test system: HCC-2998 colon
[11] = test system: HCT-116 colon
[12] = test system: HCT-15 colon
[13] = test system: HL-60(TB) leukemia
[14] = test system: HOP-62 NSCLC
[15] = test system: HS 578T breast
[16] = test system: HT29 colon
[17] = test system: IGROV1 ovarian
[18] = test system: K-562 leukemia
[19] = test system: KM12 colon
[20] = test system: M14 melanoma
[21] = test system: MALME-3M melanoma
[22] = test system: MCF7 breast
[23] = test system: MDA-MB-231 breast
[24] = test system: MDA-MB-435
[25] = test system: MOLT-4 leukemia
[26] = test system: NCI-H226 lung
[27] = test system: NCI-H23 lung
[28] = test system: NCI-H460 lung
[29] = test system: NCI-H522 lung
[30] = test system: NCI/ADR-RES ovarian
[31] = test system: OVCAR-3 ovarian
[32] = test system: OVCAR-4 ovarian
[33] = test system: OVCAR-5 ovarian
[34] = test system: OVCAR-8 ovarian
[35] = test system: PC-3 prostate
[36] = test system: RPMI-8226 leukemia
[37] = test system: RXF 393 renal
[38] = test system: SF-268 CNS
[39] = test system: SF-295 CNS
[40] = test system: SF-539 CNS
[41] = test system: SK-MEL-28 melanoma
[42] = test system: SK-MEL-5 melanoma
[43] = test system: SK-OV-3 ovarian
[44] = test system: SN12C renal
[45] = test system: SNB-19 CNS
[46] = test system: SNB-75 CNS
[47] = test system: SR leukemia
[48] = test system: SW-620 colon
[49] = test system: T-47D breast
[50] = test system: TK-10 renal
[51] = test system: U251 CNS
[52] = test system: UACC-257 melanoma
[53] = test system: UACC-62 melanoma
[54] = test system: UO-31 renal

Structure (SMILES): COc1ccc(C(=O)c2sc3nc4c(cc3c2N)CCCC4)cc1OC
- GI50 [1]: 4.01 µM
- TGI [1]: 17 µM
- GI50 [2]: 1.83 µM
- TGI [2]: 9.43 µM
- GI50 [3]: 3.28 µM
- TGI [3]: 12.9 µM
- GI50 [4]: 6.58 µM
- TGI [4]: 31.3 µM
- GI50 [5]: 2.68 µM
- TGI [5]: 8.25 µM
- GI50 [6]: 2.83 µM
- TGI [6]: 13 µM
- GI50 [7]: 2.95 µM
- TGI [7]: 12.3 µM
- GI50 [8]: 3.33 µM
- TGI [8]: 10.1 µM
- GI50 [9]: 6.74 µM
- TGI [9]: 36.6 µM
- GI50 [10]: 7.01 µM
- TGI [10]: 30.4 µM
- GI50 [11]: 3.78 µM
- TGI [11]: 50.2 µM
- GI50 [12]: 2.48 µM
- TGI [12]: 21.2 µM
- GI50 [13]: 2.8 µM
- TGI [13]: 7.62 µM
- GI50 [14]: 3.87 µM
- TGI [14]: 15.3 µM
- GI50 [15]: 4.93 µM
- TGI [15]: 56.6 µM
- GI50 [16]: 3.08 µM
- TGI [16]: 15.9 µM
- GI50 [17]: 4.75 µM
- TGI [17]: 29.3 µM
- GI50 [18]: 0.946 µM
- TGI [18]: 40.6 µM
- GI50 [19]: 2.43 µM
- TGI [19]: 15.5 µM
- GI50 [20]: 2.83 µM
- TGI [20]: 11.5 µM
- GI50 [21]: 2.71 µM
- TGI [21]: 14.8 µM
- GI50 [22]: 2.74 µM
- TGI [22]: 10.6 µM
- GI50 [23]: 3.74 µM
- TGI [23]: 8.72 µM
- GI50 [24]: 0.723 µM
- TGI [24]: 5.76 µM
- GI50 [25]: 2.62 µM
- TGI [25]: 6.49 µM
- GI50 [26]: 3.5 µM
- TGI [26]: 23 µM
- GI50 [27]: 2.64 µM
- TGI [27]: 9.94 µM
- GI50 [28]: 3.22 µM
- TGI [28]: 13.2 µM
- GI50 [29]: 1.52 µM
- TGI [29]: 5.53 µM
- GI50 [30]: 2.04 µM
- TGI [30]: 6.67 µM
- GI50 [31]: 3.91 µM
- TGI [31]: 24.4 µM
- GI50 [32]: 3.48 µM
- TGI [32]: 18.6 µM
- GI50 [33]: 14.1 µM
- TGI [33]: 48.5 µM
- GI50 [34]: 2.83 µM
- TGI [34]: 9.88 µM
- GI50 [35]: 2.97 µM
- TGI [35]: 15 µM
- GI50 [36]: 2.31 µM
- TGI [36]: 8.01 µM
- GI50 [37]: 3.41 µM
- TGI [37]: 24.2 µM
- GI50 [38]: 5.56 µM
- TGI [38]: 34.6 µM
- GI50 [39]: 3.06 µM
- TGI [39]: 13.5 µM
- GI50 [40]: 3.83 µM
- TGI [40]: 25.7 µM
- GI50 [41]: 2.95 µM
- TGI [41]: 14.8 µM
- GI50 [42]: 1.87 µM
- TGI [42]: 4.92 µM
- GI50 [43]: 10 µM
- TGI [43]: 47.6 µM
- GI50 [44]: 4.18 µM
- TGI [44]: 48.5 µM
- GI50 [45]: 7.06 µM
- TGI [45]: > 100 µM
- GI50 [46]: 2.79 µM
- TGI [46]: 9.93 µM
- GI50 [47]: 1.59 µM
- TGI [47]: 17.8 µM
- GI50 [48]: 4.15 µM
- TGI [48]: 26.9 µM
- GI50 [49]: 2.65 µM
- TGI [49]: 8.95 µM
- GI50 [50]: 4.77 µM
- TGI [50]: 26.5 µM
- GI50 [51]: 3.03 µM
- TGI [51]: 16.2 µM
- GI50 [52]: 3.81 µM
- TGI [52]: 14.9 µM
- GI50 [53]: 1.99 µM
- TGI [53]: 6.8 µM
- GI50 [54]: 3.04 µM
- TGI [54]: 13.8 µM
